From patent US8148367B2 (Takeda Pharmaceutical Company Limited, priority 2008, dated 2012)

Biological target: T1, Recombinant human renin (Homo sapiens, UniProt P00797)
T1 construct: isolate the active form (residues 67-406); made in house; host or cells: FreeStyle 293-F cells, transient expression of pcDNA3.1(+)/hREN
T1 sequence (P00797 67-406): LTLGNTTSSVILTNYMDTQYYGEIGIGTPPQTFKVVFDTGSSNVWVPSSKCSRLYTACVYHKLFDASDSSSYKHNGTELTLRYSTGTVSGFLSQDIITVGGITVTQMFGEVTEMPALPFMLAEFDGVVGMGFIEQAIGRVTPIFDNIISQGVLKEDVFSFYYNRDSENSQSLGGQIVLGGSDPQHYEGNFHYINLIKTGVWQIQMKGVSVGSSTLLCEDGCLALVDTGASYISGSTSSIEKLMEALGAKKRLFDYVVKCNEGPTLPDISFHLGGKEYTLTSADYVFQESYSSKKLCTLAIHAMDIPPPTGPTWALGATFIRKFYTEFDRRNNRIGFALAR
Assay: In vitro enzymatic activity assay of renin inhibitors (fluorescence, QXL520/HiLyteFluo488 peptide substrate)
Format: biochemical
Details: recombinant human renin 3 nM, 1 μM substrate, pre-incubated 10 minutes at 37° C., incubation one hour, pH 7.4, 5% DMSO; read-out: IC50 of Exemplified Compounds Against Renin

O=C(c1[nH]c(=O)n(-c2ccccc2)c1-c1ccccc1)N1CCNC[C@H]1Cc1ccccc1 [Example 109, (R)-4-(2-Benzylpiperazine-1-carbonyl)-1,5-diphenyl-1H-imidazol-2(3H)-one]
IC50: < 100 nM

O=C(c1[nH]c(=O)n(C2CCCCC2)c1-c1ccccc1)N1CCCNCC1 [Example 89, 1-Cyclohexyl-4-(1,4-diazepane-1-carbonyl)-5-phenyl-1H-imidazol-2(3H)-one]
IC50: > 1000 nM

Cc1ccccc1-n1c(-c2ccccc2)c(C(=O)N2CCNCC2)n(CCCNC(=O)c2ccc(Cl)cc2)c1=O [Example 243, 4-Chloro-N-(3-(2-oxo-4-phenyl-5-(piperazine-1-carbonyl)-3-o-tolyl-2,3-dihydro-1H-imidazol-1-yl)propyl)benzamide]
IC50: > 1000 nM

COC1CCc2ccc(-n3c(-c4ccccc4)c(C(=O)N4CCNC[C@H]4Cc4ccccc4)[nH]c3=O)cc21 (stereo partly drawn) [Example 138, 4-((R)-2-Benzylpiperazine-1-carbonyl)-1-(3-methoxy-2,3-dihydro-1H-inden-5-yl)-5-phenyl-1H-imidazol-2(3H)-one]
IC50: 100 to 500 nM

O=C(c1c(-c2ccccc2)n(C2CCCN(S(=O)(=O)c3ccccn3)C2)c(=O)n1Cc1cccc(Oc2ccccc2)c1)N1CCNCC1 (stereo not drawn) [Example 103, 1-(3-Phenoxybenzyl)-4-phenyl-5-(piperazine-1-carbonyl)-3-(1-(pyridin-2-ylsulfonyl)piperidin-3-yl)-1H-imidazol-2(3H)-one]
IC50: 100 to 500 nM

COc1cccc(Cn2c(C(=O)N3CCNCC3)c(-c3ccccc3)n(-c3ccccc3)c2=O)c1 [Example 83, 1-(3-methoxybenzyl)-3,4-diphenyl-5-(piperazine-1-carbonyl)-1H-imidazol-2(3H)-one]
IC50: 100 to 500 nM

C=CCS(=O)(=O)Nc1ccccc1-n1c(-c2ccccc2)c(C(=O)N2CCNC[C@H]2Cc2ccccc2)[nH]c1=O [Example 129, (R)—N-(2-(4-(2-Benzylpiperazine-1-carbonyl)-2-oxo-5-phenyl-2,3-dihydro-1H-imidazol-1-yl)phenyl)prop-2-ene-1-sulfonamide]
IC50: < 100 nM

CCS(=O)(=O)Nc1ccccc1-n1c(-c2ccccc2)c(C(=O)N2CCNC[C@H]2Cc2ccccc2)[nH]c1=O [Example 127, (R)—N-(2-(4-(2-Benzylpiperazine-1-carbonyl)-2-oxo-5-phenyl-2,3-dihydro-1H-imidazol-1-yl)phenyl)ethanesulfonamide]
IC50: 100 to 500 nM

CC(C)CN(C)C(=O)c1cccc(Cn2c(C(=O)N3CCNCC3)c(-c3ccccc3)n(-c3cccc(N4CCOCC4)c3)c2=O)c1 [Example 78, N-isobutyl-N-methyl-3-((3-(3-morpholinophenyl)-2-oxo-4-phenyl-5-(piperazine-1-carbonyl)-2,3-dihydro-1H-imidazol-1-yl)methyl)benzamide]
IC50: > 1000 nM

COc1cccc(-n2c(-c3ccccc3)c(C(=O)N3CCNC[C@H]3Cc3ccccc3)[nH]c2=O)c1OC [Example 112, (R)-4-(2-Benzylpiperazine-1-carbonyl)-1-(2,3-dimethoxyphenyl)-5-phenyl-1H-imidazol-2(3H)-one]
IC50: < 100 nM

O=C(NC[C@@H]1CNCCN1C(=O)c1[nH]c(=O)n([C@@H]2CCCC[C@H]2O)c1-c1ccccc1)c1ccccc1 [Example 107, N—(((S)-1-(1-((1R,2R)-2-Hydroxycyclohexyl)-2-oxo-5-phenyl-2,3-dihydro-1H-imidazole-4-carbonyl)piperazin-2-yl)methyl)benzamide]
IC50: 500 to 1000 nM

Cc1ccccc1-n1c(-c2ccccc2)c(C(=O)N2CCNCC2)n(CCCNC(=O)c2ccccc2Cl)c1=O [Example 241, 2-Chloro-N-(3-(2-oxo-4-phenyl-5-(piperazine-1-carbonyl)-3-o-tolyl-2,3-dihydro-1H-imidazol-1-yl)propyl)benzamide]
IC50: > 1000 nM

C=CCn1c(C(=O)N2CCNC[C@H]2Cc2ccccc2)c(-c2ccccc2)n(C2CCCCC2)c1=O [Example 64, (R)-1-Allyl-5-(2-benzylpiperazine-1-carbonyl)-3-cyclohexyl-4-phenyl-1H-imidazol-2(3H)-one]
IC50: < 100 nM

COc1ccccc1-n1c(-c2ccccc2)c(C(=O)N2CCNCC2)n(CCNC(=O)c2ccccc2)c1=O [Example 168, N-(2-(3-(2-Methoxyphenyl)-2-oxo-4-phenyl-5-(piperazine-1-carbonyl)-2,3-dihydro-1H-imidazol-1-yl)ethyl)benzamide]
IC50: 100 to 500 nM

COc1ccccc1-n1c(-c2ccccc2)c(C(=O)N2CCNCC2)n(Cc2cccc(OCCOc3ccccc3)c2)c1=O [Example 188, 1-(2-Methoxyphenyl)-3-(3-(2-phenoxyethoxy)benzyl)-5-phenyl-4-(piperazine-1-carbonyl)-1H-imidazol-2(3H)-one]
IC50: 100 to 500 nM

Cn1c(C(=O)N2CCNC[C@H]2Cc2ccccc2)c(-c2ccccc2)n(-c2cccc(N3CCOCC3)c2)c1=O [Example 55, (R)-4-(2-Benzylpiperazine-1-carbonyl)-3-methyl-1-(3-morpholinophenyl)-5-phenyl-1H-imidazol-2(3H)-one]
IC50: 100 to 500 nM

COC(=O)NCCCn1c(C(=O)N2CCNCC2)c(-c2ccccc2)n(-c2ccccc2C)c1=O [Example 253, Methyl 3-(2-oxo-4-phenyl-5-(piperazine-1-carbonyl)-3-o-tolyl-2,3-dihydro-1H-imidazol-1-yl)propylcarbamate]
IC50: > 1000 nM

O=C(c1[nH]c(=O)n(-c2ccc3c(c2)NCCC3)c1C1CC1)N1CCNC[C@H]1Cc1ccccc1 [Example 134, (R)-4-(2-Benzylpiperazine-1-carbonyl)-5-cyclopropyl-1-(1,2,3,4-tetrahydroquinolin-7-yl)-1H-imidazol-2(3H)-one]
IC50: 500 to 1000 nM

Cc1ccccc1-n1c(-c2ccccc2)c(C(=O)N2CCNCC2)n(CCCNS(=O)(=O)c2ccccc2Cl)c1=O [Example 217, 2-Chloro-N-(3-(2-oxo-4-phenyl-5-(piperazine-1-carbonyl)-3-o-tolyl-2,3-dihydro-1H-imidazol-1-yl)propyl)benzenesulfonamide]
IC50: < 100 nM

COc1cc(Cn2c(C(=O)N3CCNCC3)c(-c3ccccc3)n(-c3ccccc3)c2=O)cc(OC)c1 [Example 86, 1-(3,5-Dimethoxybenzyl)-3,4-diphenyl-5-(piperazine-1-carbonyl)-1H-imidazol-2(3H)-one]
IC50: 100 to 500 nM

O=C(c1c(-c2ccccc2)n([C@H]2CCCC[C@H]2O)c(=O)n1Cc1cccc(Oc2ccccc2)c1)N1CCNCC1 [Example 152, 1-((1S,2R)-2-Hydroxycyclohexyl)-3-(3-phenoxybenzyl)-5-phenyl-4-(piperazine-1-carbonyl)-1H-imidazol-2(3H)-one]
IC50: 500 to 1000 nM

O=C(c1c(-c2ccccc2)n(-c2ccccc2)c(=O)n1Cc1nnc(C2CC2)s1)N1CCNCC1 [Example 48, 1-((5-Cyclopropyl-1,3,4-thiadiazol-2-yl)methyl)-3,4-diphenyl-5-(piperazine-1-carbonyl)-1H-imidazol-2(3H)-one]
IC50: > 1000 nM

O=C(c1c(-c2ccccc2)n(C2CCCCC2)c(=O)n1Cc1cc(-c2cn[nH]c2)nc(-c2cn[nH]c2)c1)N1CCNCC1 [Example 91, 1-Cyclohexyl-3-((2,6-di(1H-pyrazol-4-yl)pyridin-4-yl)methyl)-5-phenyl-4-(piperazine-1-carbonyl)-1H-imidazol-2(3H)-one]
IC50: 100 to 500 nM

CCCC(=O)Nc1ccccc1-n1c(-c2ccccc2)c(C(=O)N2CCNC[C@H]2Cc2ccccc2)[nH]c1=O [Example 121, (R)—N-(2-(4-(2-Benzylpiperazine-1-carbonyl)-2-oxo-5-phenyl-2,3-dihydro-1H-imidazol-1-yl)phenyl)butyramide]
IC50: 100 to 500 nM
